# Activity calls are given as the source filed them. The calls are words filed in the database; no cut-off is given here.
# Tests used:
# Staphylococcus aureus [1] = experiment: Antibacterial activity against Staphylococcus aureus after 24 hrs by microbroth dilution method; format: functional
# Staphylococcus aureus [2] = experiment: Antibacterial activity against oxacillin-sensitive Staphylococcus aureus after 24 hrs by microbroth dilution method; format: functional
# Staphylococcus aureus [3] = experiment: Antibacterial activity against oxacillin-resistant Staphylococcus aureus after 24 hrs by microbroth dilution method; format: functional
# Escherichia coli [4] = experiment: Antibacterial activity against Escherichia coli after 24 hrs by microbroth dilution method; format: functional
# Pseudomonas aeruginosa [5] = experiment: Antibacterial activity against Pseudomonas aeruginosa after 24 hrs by microbroth dilution method; format: functional
# Pseudomonas aeruginosa [6] = experiment: Antibacterial activity against colistin-sensitive Pseudomonas aeruginosa after 24 hrs by microbroth dilution method; format: functional
# Inquilinus limosus = experiment: Antibacterial activity against colistin-resistant Inquilinus limosus after 24 hrs by microbroth dilution method; format: functional
# Burkholderia cepacia = experiment: Antibacterial activity against Colistin resistant Burkholderia cepacia after 24 hrs by microbroth dilution method; format: functional
# Escherichia coli [7] = experiment: Antibacterial activity against Escherichia coli ATCC 25922 after 24 hrs by microbroth dilution method in absence of Mg2+; format: functional
# Staphylococcus aureus [8] = experiment: Antibacterial activity against Staphylococcus aureus ATCC 25923 after 24 hrs by microbroth dilution method in absence of Mg2+; format: functional
# Escherichia coli [9] = experiment: Antibacterial activity against Escherichia coli ATCC 25922 after 24 hrs by microbroth dilution method in presence of Mg2+; format: functional
# Staphylococcus aureus [10] = experiment: Antibacterial activity against Staphylococcus aureus ATCC 25923 after 24 hrs by microbroth dilution method in presence of Mg2+; format: functional
# Escherichia coli [11] = experiment: Ratio of MIC for Escherichia coli ATCC 25922 in presence of Mg2+ to MIC for Escherichia coli ATCC 25922 in absence of Mg2+; format: functional
# Escherichia coli [12] = experiment: Antibacterial activity against Escherichia coli assessed as induction of ATP efflux at 4 times MIC after 5 mins by luminometry analysis; format: functional
# Staphylococcus aureus [13] = experiment: Antibacterial activity against Staphylococcus aureus assessed as induction of ATP efflux at 4 times MIC after 5 mins by luminometry; format: functional
# Escherichia coli [14] = experiment: Antibacterial activity against Escherichia coli assessed as induction of bacterial membrane depolarization at MIC measured up to 21 mins by fluorescence assay; format: functional, organism-based
# Staphylococcus aureus [15] = experiment: Antibacterial activity against Staphylococcus aureus assessed as induction of bacterial membrane depolarization at MIC measured up to 21 mins by fluorescence assay; format: functional, organism-based
# Staphylococcus aureus [16] = experiment: Antibacterial activity against Staphylococcus aureus assessed as induction of bacterial membrane depolarization at MIC after 3 mins by fluorescence assay; format: functional
# Staphylococcus aureus [17] = experiment: Bactericidal activity against Staphylococcus aureus DSM 799 assessed as log decrease in bacterial count at MIC after 2 hrs by time-kill assay; format: functional
# Staphylococcus aureus [18] = experiment: Bactericidal activity against Staphylococcus aureus DSM 799 assessed as log decrease in bacterial count at MIC after 1 hr by time-kill assay; format: functional
# Pseudomonas aeruginosa [19] = experiment: Bactericidal activity against Pseudomonas aeruginosa DSM 939 assessed as complete killing at MIC after 2 hrs by time-kill assay; format: functional, organism-based
# Staphylococcus aureus [20] = experiment: Antibacterial activity against Staphylococcus aureus assessed as induction of bacterial membrane depolarization at MIC measured up to 21 mins by fluorescence assay relative to squalamine; format: functional
# Escherichia coli [21] = experiment: Antibacterial activity against Escherichia coli assessed as induction of bacterial membrane depolarization at MIC measured up to 21 mins by fluorescence assay relative to squalamine; format: functional
Compound,MIC (Staphylococcus aureus [1]) [µg/mL],MIC (Staphylococcus aureus [2]) [µg/mL],MIC (Staphylococcus aureus [3]) [µg/mL],MIC (Escherichia coli [4]) [µg/mL],MIC (Pseudomonas aeruginosa [5]) [µg/mL],MIC (Pseudomonas aeruginosa [6]) [µg/mL],MIC (Inquilinus limosus) [µg/mL],MIC (Burkholderia cepacia) [µg/mL],further results
C[C@@H](NCCCCCCCCCN)[C@H]1CC[C@H]2[C@@H]3CCC4=C[C@@H](NCCCCCCCCCN)CC[C@]4(C)[C@H]3CC[C@]12C,5,5,5,20,40,40,20,> 40,–
C[C@@H](NCCCCCCCCCCCCN)[C@H]1CC[C@H]2[C@@H]3CCC4=C[C@@H](NCCCCCCCCCCCCN)CC[C@]4(C)[C@H]3CC[C@]12C,10,5,10,20,40,40,20,> 40,–
COLISTIMETHATE SODIUM,–,–,–,2.5,5,5,> 100,> 40,MIC (Escherichia coli [7]): 0.5 µg/mL; MIC (Staphylococcus aureus [8]): > 128 µg/mL; MIC (Escherichia coli [9]): 16 µg/mL; MIC (Staphylococcus aureus [10]): > 128 µg/mL; Ratio (Escherichia coli [11]): 4; Activity (Escherichia coli [12]): 4%; Activity (Staphylococcus aureus [13]): inactive
CC(C)[C@@H](CC[C@@H](C)[C@H]1CC[C@H]2[C@@H]3[C@H](O)C[C@H]4C[C@@H](NCCCNCCCCN)CC[C@]4(C)[C@H]3CC[C@]12C)OS(=O)(=O)O [SQUALAMINE],1.25,0.3,1.25,5,2.5,5,5,> 40,"MIC (Escherichia coli [7]; ATCC 25922, 24 h): 2.5 µg/mL; MIC (Staphylococcus aureus [8]; ATCC 25923, 24 h): 1.25 µg/mL; MIC (Escherichia coli [9]; ATCC 25922, 24 h): 32 µg/mL; MIC (Staphylococcus aureus [10]; ATCC 25923, 24 h): 1.25 µg/mL; Ratio (Escherichia coli [11]): 4; Activity (Escherichia coli [12]): <35%; Activity (Staphylococcus aureus [13]): 100%; Activity (Escherichia coli [14]): inactive; Activity (Staphylococcus aureus [15]): Active; Activity (Staphylococcus aureus [16]): 80%"
CN[C@@H]1C=C2CC[C@H]3[C@@H]4CC[C@H]([C@@H](C)NC)[C@@]4(C)CC[C@@H]3[C@@]2(C)CC1,40,20,20,> 40,> 40,> 40,> 40,> 40,–
C[C@@H](NCCCN)[C@H]1CC[C@H]2[C@@H]3CCC4=C[C@@H](NCCCN)CC[C@]4(C)[C@H]3CC[C@]12C,10,10,5,10,10,20,20,> 40,–
C[C@@H](NCCCCCCCCCCN)[C@H]1CC[C@H]2[C@@H]3CCC4=C[C@@H](NCCCCCCCCCCN)CC[C@]4(C)[C@H]3CC[C@]12C,10,5,5,20,40,40,20,> 40,–
C[C@@H](NCCCCCCN)[C@H]1CC[C@H]2[C@@H]3CCC4=C[C@@H](NCCCCCCN)CC[C@]4(C)[C@H]3CC[C@]12C,2.5,5,5,5,10,20,20,> 40,–
NC[C@H]1O[C@H](O[C@H]2[C@H](O)[C@@H](O[C@H]3O[C@H](CO)[C@@H](O)[C@H](N)[C@H]3O)[C@H](N)C[C@@H]2N)[C@H](N)C[C@@H]1O [TOBRAMYCIN],1.25,1.25,–,2.5,5,5,> 40,> 40,"MIC (Escherichia coli [7]; ATCC 25922, 24 h): 2 µg/mL; MIC (Staphylococcus aureus [8]; ATCC 25923, 24 h): 1 µg/mL; MIC (Escherichia coli [9]; ATCC 25922, 24 h): 1 µg/mL; MIC (Staphylococcus aureus [10]; ATCC 25923, 24 h): 2 µg/mL; FC (Staphylococcus aureus [17]): 5"
C[C@@H](NCCCCCCCN)[C@H]1CC[C@H]2[C@@H]3CCC4=C[C@@H](NCCCCCCCN)CC[C@]4(C)[C@H]3CC[C@]12C,2.5,2.5,5,5,10,10,20,> 40,–
C[C@@H](NCCCCN)[C@H]1CC[C@H]2[C@@H]3CCC4=C[C@@H](NCCCCN)CC[C@]4(C)[C@H]3CC[C@]12C,5,10,6,10,20,20,40,> 40,–
C[C@@H](N)[C@H]1CC[C@H]2[C@@H]3CCC4=C[C@@H](N)CC[C@]4(C)[C@H]3CC[C@]12C,40,> 40,40,> 40,> 40,> 40,> 40,> 40,–
C[C@@H](NCCN)[C@H]1CC[C@H]2[C@@H]3CCC4=C[C@@H](NCCN)CC[C@]4(C)[C@H]3CC[C@]12C,20,20,10,20,20,20,> 40,> 40,–
C[C@@H](NCCCCCN)[C@H]1CC[C@H]2[C@@H]3CCC4=C[C@@H](NCCCCCN)CC[C@]4(C)[C@H]3CC[C@]12C,5,5,10,10,10,20,40,> 40,–
C[C@@H](NCCCCCCCCN)[C@H]1CC[C@H]2[C@@H]3CCC4=C[C@@H](NCCCCCCCCN)CC[C@]4(C)[C@H]3CC[C@]12C,2.5,2.5,5,5,2.5,2.5,10,> 40,"MIC (Escherichia coli [7]; ATCC 25922, 24 h): 2.5 µg/mL; MIC (Staphylococcus aureus [8]; ATCC 25923, 24 h): 2.5 µg/mL; MIC (Escherichia coli [9]; ATCC 25922, 24 h): 10 µg/mL; MIC (Staphylococcus aureus [10]; ATCC 25923, 24 h): 5 µg/mL; Ratio (Escherichia coli [11]): 4; FC (Staphylococcus aureus [18]): 5; Activity (Pseudomonas aeruginosa [19]): Active; fold change (FC) (Staphylococcus aureus [20]): 4; Activity (Escherichia coli [12]): <35%; fold change (FC) (Escherichia coli [21]): 4"
